Reference: the NIST ThermoML archive (doi:10.1016/j.jct.2006.09.007)
Where “and” joins values, the source holds several entries; their conditions need not be identical. Identical values can stand only once. ± gives the expanded uncertainty stated by the source.

How the values were obtained:
[1] = xn = mol fraction of the nth substance listed; conditions: 101.3 kPa, Liquid
[2] = 101.3 kPa, Liquid
[3] = molar heat capacity at constant pressure; conditions: 298.15 K; 101.33 kPa; Liquid; Flow calorimetry

N#Cc1ccccc1 [benzonitrile] + COc1ccccc1
mass density [kg/m3], [1]
Conditions | 298.15 K | 308.15 K
x1 = 0.0168 | 989.23 ± 0.33 | 979.02 ± 0.34
x1 = 0.0762 | 990.08 ± 0.31 | 979.91 ± 0.32
x1 = 0.1199 | 990.69 ± 0.3 | 980.57 ± 0.31
x1 = 0.2462 | 992.32 ± 0.26 | 982.29 ± 0.27
x1 = 0.3042 | 993.03 ± 0.24 | 983.06 ± 0.25
x1 = 0.3614 | 993.71 ± 0.23 | 983.73 ± 0.24
x1 = 0.5068 | 995.35 ± 0.19 | 985.48 ± 0.21
x1 = 0.5823 | 996.16 ± 0.18 | 986.31 ± 0.19
x1 = 0.6772 | 997.14 ± 0.16 | 987.35 ± 0.18
x1 = 0.7832 | 998.21 ± 0.15 | 988.45 ± 0.16
x1 = 0.9105 | 999.44 ± 0.14 | 989.77 ± 0.15
x1 = 1 | 1000.25 ± 0.13 | 990.67 ± 0.15

N#Cc1ccccc1 [benzonitrile] + Cc1ccc(C)c(C)c1
[1]
Conditions | excess molar heat capacity, 298.15 K | mass density, 298.15 K [kg/m3] | mass density, 308.15 K [kg/m3]
x1 = 0.0712 | – | 879.01 ± 0.45 | –
x1 = 0.0829 | 0.643 ± 0.052 J/K/mol | – | –
x1 = 0.1322 | – | 885.6 ± 0.42 | 876.48 ± 0.44
x1 = 0.1409 | 0.998 ± 0.053 J/K/mol and 0.981 ± 0.052 J/K/mol | – | –
x1 = 0.1765 | – | 890.46 ± 0.41 | 881.29 ± 0.42
x1 = 0.2844 | 1.571 ± 0.054 J/K/mol and 1.511 ± 0.054 J/K/mol | – | –
x1 = 0.2874 | – | 902.94 ± 0.37 | 893.72 ± 0.38
x1 = 0.3441 | – | 909.49 ± 0.35 | 900.27 ± 0.36
x1 = 0.377 | 1.621 ± 0.054 J/K/mol | – | –
x1 = 0.3967 | – | 915.71 ± 0.33 | 906.56 ± 0.34
x1 = 0.445 | – | 921.57 ± 0.31 | 912.35 ± 0.33
x1 = 0.4558 | 1.622 ± 0.054 J/K/mol | – | –
x1 = 0.5283 | – | 932.03 ± 0.29 | 922.7 ± 0.3
x1 = 0.5359 | 1.475 ± 0.054 J/K/mol | – | –
x1 = 0.5861 | – | 939.54 ± 0.27 | 930.13 ± 0.28
x1 = 0.6329 | – | 945.69 ± 0.25 | 936.31 ± 0.26
x1 = 0.6367 | 1.241 ± 0.053 J/K/mol | – | –
x1 = 0.6879 | – | 953.12 ± 0.23 | 943.75 ± 0.24
x1 = 0.6974 | 1.021 ± 0.053 J/K/mol | – | –
x1 = 0.7772 | 0.753 ± 0.052 J/K/mol | – | –
x1 = 0.7796 | – | 966.07 ± 0.2 | 956.62 ± 0.21
x1 = 0.7804 | – | 966.21 ± 0.2 | 956.8 ± 0.21
x1 = 0.8187 | – | 971.88 ± 0.19 | 962.37 ± 0.2
x1 = 0.9027 | – | 984.6 ± 0.16 | 975.04 ± 0.17
x1 = 0.9039 | 0.294 ± 0.051 J/K/mol | – | –
x1 = 0.9079 | – | 985.41 ± 0.16 | 975.88 ± 0.17
x1 = 0.9431 | 0.176 ± 0.05 J/K/mol | – | –
x1 = 0.9687 | – | 995.12 ± 0.14 | –
x1 = 0.9822 | – | 997.27 ± 0.14 | –
x1 = 1 | – | 1000.25 ± 0.13 | 990.67 ± 0.15

N#Cc1ccccc1 [benzonitrile] + CC(C)c1ccccc1
[1], x1 = 1
Conditions | mass density [kg/m3]
298.15 K | 1000.25 ± 0.13
308.15 K | 990.67 ± 0.15

CC(C)c1ccccc1 [isopropylbenzene] + N#Cc1ccccc1
[1], 298.15 K, Flow calorimetry
Conditions | excess molar heat capacity [J/K/mol]
x2 = 0.0812 | 1.087 ± 0.1
x2 = 0.1147 | 1.448 ± 0.11
x2 = 0.2052 | 2.23 ± 0.11
x2 = 0.3131 | 2.763 ± 0.11
x2 = 0.3691 | 2.935 ± 0.12
x2 = 0.4488 | 2.929 ± 0.12
x2 = 0.5194 | 2.919 ± 0.12
x2 = 0.6256 | 2.511 ± 0.11
x2 = 0.6997 | 2.226 ± 0.11
x2 = 0.8003 | 1.545 ± 0.11
x2 = 0.9038 | 0.825 ± 0.1
x2 = 0.9407 | 0.527 ± 0.1

mass density [kg/m3], [1]
Conditions | 298.15 K | 308.15 K
x2 = 0 | 857.41 ± 0.49 | 848.26 ± 0.5
x2 = 0.0581 | 864.33 ± 0.47 | 855.15 ± 0.48
x2 = 0.0865 | 867.75 ± 0.46 | 858.59 ± 0.47
x2 = 0.2036 | 882.15 ± 0.41 | 872.93 ± 0.43
x2 = 0.2835 | 892.28 ± 0.38 | 883.09 ± 0.4
x2 = 0.3445 | 900.22 ± 0.36 | 891.02 ± 0.37
x2 = 0.3887 | 906.07 ± 0.35 | 896.85 ± 0.36
x2 = 0.4445 | 913.59 ± 0.33 | 904.41 ± 0.34
x2 = 0.5627 | 930.2 ± 0.28 | 920.94 ± 0.3
x2 = 0.6557 | 943.85 ± 0.25 | 934.41 ± 0.26
x2 = 0.7271 | 954.72 ± 0.22 | 945.3 ± 0.24
x2 = 0.8102 | 967.92 ± 0.19 | 958.51 ± 0.21
x2 = 0.9017 | 983.11 ± 0.16 | 973.75 ± 0.18

Cc1cccc(C)c1 [1,3-dimethylbenzene]
[2]
Conditions | mass density [kg/m3]
298.15 K | 859.68 ± 0.49
308.15 K | 850.01 ± 0.5

Conditions | molar heat capacity at constant pressure [J/K/mol]
[3] | 181.38 ± 0.37

N#Cc1ccccc1 [benzonitrile] + Cc1ccc(C)cc1
[1], 298.15 K, Flow calorimetry
Conditions | excess molar heat capacity [J/K/mol]
x1 = 0.0349 | 0.303 ± 0.1
x1 = 0.0918 | 0.681 ± 0.1
x1 = 0.2035 | 1.281 ± 0.11
x1 = 0.2559 | 1.362 ± 0.11
x1 = 0.3682 | 1.534 ± 0.11
x1 = 0.4313 | 1.443 ± 0.11
x1 = 0.5014 | 1.374 ± 0.11
x1 = 0.5905 | 1.132 ± 0.11
x1 = 0.6663 | 0.966 ± 0.1
x1 = 0.7646 | 0.664 ± 0.1
x1 = 0.8402 | 0.453 ± 0.1
x1 = 0.9222 | 0.168 ± 0.1
x1 = 0.9776 | 0.082 ± 0.1

mass density [kg/m3], [1]
Conditions | x1 = 0.1009 | x1 = 0.2247 | x1 = 0.2938 | x1 = 0.4357 | x1 = 0.5627 | x1 = 0.6605 | x1 = 0.7646 | x1 = 0.8328 | x1 = 0.9439 | x1 = 1
298.15 K | 869.79 ± 0.45 | 886.32 ± 0.4 | 895.69 ± 0.38 | 915.25 ± 0.33 | 933.25 ± 0.28 | 947.47 ± 0.24 | 963.07 ± 0.21 | 973.55 ± 0.18 | 991.13 ± 0.15 | 1000.25 ± 0.13
308.15 K | 860.32 ± 0.46 | 876.88 ± 0.42 | 886.28 ± 0.39 | 905.85 ± 0.34 | 923.86 ± 0.29 | 938.07 ± 0.26 | 953.65 ± 0.22 | 964.15 ± 0.2 | 981.68 ± 0.16 | 990.67 ± 0.15

N#Cc1ccccc1 [benzonitrile] + Cc1ccccc1C
[1]
Conditions | excess molar heat capacity, 298.15 K [J/K/mol] | mass density, 298.15 K [kg/m3] | mass density, 308.15 K [kg/m3]
x1 = 0.0394 | 0.448 ± 0.051 | – | –
x1 = 0.0781 | 0.829 ± 0.052 | – | –
x1 = 0.0815 | – | 884.98 ± 0.44 | 875.72 ± 0.45
x1 = 0.1262 | – | 890.21 ± 0.42 | 881 ± 0.43
x1 = 0.1398 | 1.273 ± 0.053 | – | –
x1 = 0.1604 | – | 894.21 ± 0.41 | 884.95 ± 0.42
x1 = 0.2299 | 1.689 ± 0.054 | – | –
x1 = 0.2579 | – | 905.68 ± 0.37 | 896.47 ± 0.38
x1 = 0.2803 | 1.799 ± 0.055 | – | –
x1 = 0.3687 | 1.875 ± 0.055 | – | –
x1 = 0.4054 | – | 923.32 ± 0.32 | 914.01 ± 0.33
x1 = 0.4391 | 1.792 ± 0.054 | – | –
x1 = 0.496 | – | 934.4 ± 0.29 | 925.13 ± 0.3
x1 = 0.5361 | – | 939.32 ± 0.27 | 929.98 ± 0.29
x1 = 0.5364 | 1.592 ± 0.054 | – | –
x1 = 0.611 | 1.376 ± 0.053 | – | –
x1 = 0.6558 | – | 954.37 ± 0.23 | 945.1 ± 0.25
x1 = 0.6924 | – | 959.03 ± 0.22 | 949.64 ± 0.23
x1 = 0.7003 | 1.11 ± 0.053 | – | –
x1 = 0.7684 | 0.826 ± 0.052 | – | –
x1 = 0.8727 | 0.479 ± 0.051 | – | –
x1 = 0.876 | – | 983.2 ± 0.16 | 973.86 ± 0.18
x1 = 0.9031 | – | 986.86 ± 0.16 | 977.39 ± 0.17
x1 = 0.9314 | 0.242 ± 0.051 | – | –
x1 = 0.9608 | – | 994.84 ± 0.14 | 985.42 ± 0.16
x1 = 1 | – | 1000.25 ± 0.13 | 990.67 ± 0.15
